Test results from patent US8329617B2, “Compositions and methods for synergistic manipulation of plant and insect defenses” (Plant Bioscience Limited, priority 2007, dated 2012).

Legend:
esterase = conditions: topical application of 1 ul of 0.1% PBO
Method: The esterase activity of individuals from a clone of resistant Myzus persicae was measured at zero time, then at hourly intervals following in vivo topical application of 1 ul of 0.1% PBO. […] The assay would also be continued to determine the time taken for the esterase levels to return to normal.

Bemisia tabaci, GUA MIX = experiment: Glasshouse simulator trial: B. tabaci pupae protein on tomato plants treated with cis-jasmone and PBO; assay type: in vivo; conditions: for μg (Av) Total Protein (B. tabaci pupae): simulator, ten tomato plants per treatment, ten adult whiteflies per plant, ~16 days
Method: (§1) In all bioassay experiments the control plants were sprayed with deionised water. Initially seven treatments were used (Table 1) to test all chemical variables. All treatments were applied hydraulically with a spray simulator after which the plants were separated according to treatment (with cis-jasmone controls being separated) and left for 2 hours prior to insect application.
(§2) Analysis of protein in each treatment was conducted using Bradford Reagent: the data were analysed using the computer programme ‘GraFit’ (Erithacus software, Berkeley). To calculate the calibration curve a single logarithmic curve was used with regression analysis taking the values of the treatment wells (averages of the three readings taken: technical replicates).
A new method for the investigation of the development of whitefly to the pupal stage on tomatoes and cotton was used. […] These were checked for protein after ˜16 days using Bradford reagent.
Adults were added to the plant 2 h after treatment, and removed after 24 h. The eggs laid were then left for 16-18 days until they reached the pupal stage. The total pupal protein on the plant was tested using the Bradford reagent.
As described above 10 adult females were released on to each tomato plant, ten/treatment and after ˜16 days pupae were removed using a scalpel blade. These were checked for total protein using Bradford reagent. Plants were put into glasshouse simulators (one/treatment) and kept at 28° C., 12 L: […] and 80% R.H.

Myzus persicae, US1L = experiment: Glasshouse simulator trial: M. persicae protein on pepper plants treated with cis-jasmone and PBO; assay type: in vivo; conditions: for μg (Av) Total Protein (M. persicae): simulator, 25 pepper plants per treatment, three adult apterous aphids per plant, 7 days
Method: as §1, §2
To investigate developmental/fecundity effects of cis-jasmone+/−PBO (see Table 1) on Myzus persicae when applied to sweet peppers, adults were added to the plants and then using Bradford reagent, the amount of aphid protein present on the plants 7 days after treatment was measured. Esterase levels were also tested after the same interval to check for the possible induction of metabolic enzymes when using cis-jasmone. Aphids were brushed from all plants and each leaf checked individually to ensure none remained. The aphid mass for each treatment was weighed before total protein was assessed (total from all […] plants in the treatment).
Myzus persicae were applied to sweet peppers at the rate of three adults per plant. Aphids were brushed from all plants and each leaf checked individually to ensure none remained. The aphid mass for each treatment was assessed for total protein (total from all 25 plants in the treatment) using Bradford reagent. The amount of aphid protein present on the plants 7 days after treatment was measured. Plants were put into glasshouse simulators (one/treatment) and kept at 28° C., 12 L: […] and 80% R.H.

In the case of CCCCOCCOCCOCc1cc2c(cc1CCC)OCO2 [PBO, 2-(2-butoxyethoxy)ethyl 6-propylpiperonyl ether], the “time delay for esterase inhibition” value (esterase; individual cotton bollworms) is reported as 5 h, the “optimal time delay for esterase inhibition” value (esterase; individual whiteflies) is reported as 10 h and the “effect of addition of PBO to cis-jasmone on reduction of insect protein (in words)” value (Bemisia tabaci, GUA MIX; B. tabaci on tomato, simulator trial) is reported as “potentiates the effect of cis-jasmone”. For the same molecule, the “Av. Total Insect Protein μg” value (Bemisia tabaci, GUA MIX; Simulator, Bemisia tabaci (GUA MIX) on Tomato (Carousel), average of weeks 1 to 3) was 0.156 µg, the “μg (Av) Total Protein (B. tabaci pupae)” value (Bemisia tabaci, GUA MIX; week 1) was 0.165 µg and the “μg (Av) Total Protein (B. tabaci pupae)” value (Bemisia tabaci, GUA MIX; week 2) was 0.169 µg. The “μg (Av) Total Protein (B. tabaci pupae)” value (Bemisia tabaci, GUA MIX; week 3) was 0.134 µg, the “effect of addition of PBO to cis jasmone on efficacy (in words)” value (Myzus persicae, US1L; M. persicae on pepper, simulator trial) was “does not significantly increase efficacy” and the “Av. Total Insect Protein μg” value (Myzus persicae, US1L; Simulator, M. persicae (US1L) on Pepper (BellBoy), average of weeks 1 to 3) was 14.406 µg. For the same molecule, the “μg (Av) Total Protein (M. persicae)” value (Myzus persicae, US1L; week 1) was 14.72 µg, the “μg (Av) Total Protein (M. persicae)” value (Myzus persicae, US1L; week 2) was 14.2 µg and the “μg (Av) Total Protein (M. persicae)” value (Myzus persicae, US1L; week 3) was 14.3 µg.
